In patent publication US20260116921A1, “PEPTIDE INHIBITORS OF INTERLEUKIN-23 RECEPTOR AND THEIR USE TO TREAT INFLAMMATORY DISEASES” (priority 2018, published 2026):
Bridge positions count the residues as written; N and C are the ends. Square brackets hold non-standard residues; d marks the D form. Peptide text beside a SMILES is read from it. Trp(7-Me) = Cc1cccc2c(C[C@H](N)C(=O)O)c[nH]c12; 2Nal = N[C@@H](Cc1ccc2ccccc2c1)C(=O)O; AEF = NCCOc1ccc(C[C@H](N)C(=O)O)cc1; Cit = NC(=O)NCCC[C@H](N)C(=O)O; Pen = CC(C)(S)[C@H](N)C(=O)O; αMeK = C[C@](N)(CCCCN)C(=O)O

What was measured:
[1] = in vitro; type: in vitro ADME; set-up: half-life: dose or concentration left out as unconfirmed; settings: simulated intestinal fluid (SIF) with pancreatin, pH 6.8, 37° C., § matrix is 100 fold dilution of standard SIF concentration, read-out: SIF t½ (converted)
[2] = biological target: T1, IL-23R (Homo sapiens, UniProt Q5VWK5); experiment: DB cells IL23R pSTAT3 cell assay (pStat3 HTRF); type: cell-based; settings: Table E3; DB cells, IL-23 0.5 nM, 30 minutes at 37° C.; read-out: pStat3 HTRF (IC50)
T1 sequence (Q5VWK5 24-629): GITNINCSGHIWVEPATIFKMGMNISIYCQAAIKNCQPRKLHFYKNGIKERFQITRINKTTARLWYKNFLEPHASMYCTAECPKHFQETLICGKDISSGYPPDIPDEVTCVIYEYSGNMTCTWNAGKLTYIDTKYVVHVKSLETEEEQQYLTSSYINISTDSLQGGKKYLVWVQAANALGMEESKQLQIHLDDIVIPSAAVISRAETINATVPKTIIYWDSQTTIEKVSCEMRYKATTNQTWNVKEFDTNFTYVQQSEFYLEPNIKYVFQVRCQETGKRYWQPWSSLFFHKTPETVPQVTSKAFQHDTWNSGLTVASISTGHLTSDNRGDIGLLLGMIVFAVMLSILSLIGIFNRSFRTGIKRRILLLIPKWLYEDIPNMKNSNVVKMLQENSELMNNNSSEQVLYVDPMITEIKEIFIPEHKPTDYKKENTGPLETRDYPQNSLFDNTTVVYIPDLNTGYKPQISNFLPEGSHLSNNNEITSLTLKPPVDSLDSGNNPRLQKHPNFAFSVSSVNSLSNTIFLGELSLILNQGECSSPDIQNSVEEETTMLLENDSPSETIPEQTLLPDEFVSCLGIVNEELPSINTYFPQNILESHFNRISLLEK
How it was run: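 DB cells (5×10E5/well, RPMI-1640 + 10% FBS) stimulated with 0.5 nM final IL-23 plus serially diluted test peptides for 30 min at 37 °C, 5% CO2. Phospho-STAT3 (Tyr705) in lysates measured by HTRF using a two-plate protocol.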

[3] = in vitro; settings: both, SD, rat, plasma (EDTA)
[4] = in vitro; settings: human, 20% fecal homogenate (supernatant), anaerobic, pH 6.8
Description: Fecal homogenate (20%) was prepared by adding 4 mL of growth medium (1 liter contains 2 g peptone water powder, 2 g yeast extract, 0.1 g NaCl, 0.04 g KH2PO4, 0.01 g CaCl2·6H2O, 0.01 g MgSO4·7H2O, 2 mL Tween 80, 0.5 g bile salts, 0.5 g L-cysteine HCl, 2 g NaHCO3, and 10 μL Vitamin K, pH adjusted to 6.8, and sterilized by filtration through a 0.22 μm filter) to every gram of feces (pooled freshly collected human or cynomolgus monkey feces). The suspension was vortexed to break up large clumps, and homogenized using a bead mill homogenizer. Centrifuged the homogenate at 2800×g for 15 min. The supernatant is taken out and used for incubations. DMSO stocks (10 mM) were first prepared for the test compounds. Incubations were performed in an anaerobic chamber conditioned at 37° C. Aliquots of the DMSO solutions were dosed into 1.0 mL aliquots of 20% fecal homogenate, which are pre-warmed to 37° C. The final test compound concentration was 20 μM. At each timepoint (0, 20 min, 1, 3, 6, or 24 hours), 100 μL aliquot of each incubation mixture is taken out and added to separate tubes containing 300 μL of 50% acetonitrile/50% methanol and an internal standard to terminate the reaction. Samples were taken out of the anaerobic chamber and stored at 4° C. until the end of the experiment. After the final timepoint is sampled, the tubes were mixed and then centrifuged at 3,000 rpm for 10 minutes. Aliquots of the supernatant were removed, diluted 1:1 into distilled water containing 0.1% formic acid, and analyzed by LC/MS/MS. Percent remaining at each timepoint was calculated based on the peak area response ratio of test to compound to internal standard. Time 0 was set to 100%, and all later timepoints were calculated relative to time 0. Half-lives were calculated by fitting to a first-order exponential decay equation using Graphpad or Excel.

[5] = in vitro; settings: cynomolgus monkey, 20% fecal homogenate (supernatant), anaerobic, pH 6.8

Compound | half-life [1] [h] | IC50 [2] [nM] | half-life at 20 μM [3] [h] | half-life at 20 μM [4] [h] | half-life at 20 μM [5] [h]
CC(=O)NCCCC[C@@H]1NC(=O)[C@H](Cc2c[nH]c3c(C)cccc23)NC(=O)[C@H]([C@@H](C)O)NC(=O)[C@H](CC(N)=O)NC(=O)[C@@H](NC(C)=O)C(C)(C)SSC(C)(C)[C@@H](C(=O)N[C@@H](Cc2ccc(OCCN)cc2)C(=O)N[C@@H](Cc2ccc3ccccc3c2)C(=O)N[C@@](C)(CCCCN)C(=O)N[C@@H](CCCCNC(C)=O)C(=O)N[C@@H](CC(N)=O)C(=O)N[C@@H](CCCNC(=N)N)C(N)=O)NC1=O [compound 243] | < 1 | 1 to 10 | 21 | 1 | –
CC(=O)NCCCC[C@@H]1NC(=O)[C@H](Cc2c[nH]c3c(C)cccc23)NC(=O)[C@H]([C@@H](C)O)NC(=O)[C@H](CC(N)=O)NC(=O)[C@@H](NC(C)=O)C(C)(C)SSC(C)(C)[C@@H](C(=O)N[C@@H](Cc2ccc(OCCN)cc2)C(=O)N[C@@H](Cc2ccc3ccccc3c2)C(=O)N[C@@](C)(CCCCN)C(=O)N[C@@H](CCCCNC(C)=O)C(=O)N[C@@H](CC(N)=O)C(=O)N[C@@H](CC(C)C)C(N)=O)NC1=O [compound 244] | 1 | 1 to 10 | > 24 | 19 | –
CC(=O)NCCCC[C@@H]1NC(=O)[C@H](Cc2c[nH]c3c(C)cccc23)NC(=O)[C@H]([C@@H](C)O)NC(=O)[C@H](CC(N)=O)NC(=O)[C@@H](NC(C)=O)C(C)(C)SSC(C)(C)[C@@H](C(=O)N[C@@H](Cc2ccc(OCCN)cc2)C(=O)N[C@@H](Cc2ccc3ccccc3c2)C(=O)N[C@@](C)(CCCCN)C(=O)N[C@@H](CCCCNC(C)=O)C(=O)N[C@@H](CC(N)=O)C(=O)N[C@@H](Cc2c[nH]cn2)C(N)=O)NC1=O [compound 248] | 3 | – | > 24 | > 24 | 6
CC(=O)NCCCC[C@@H]1NC(=O)[C@H](Cc2c[nH]c3c(C)cccc23)NC(=O)[C@H]([C@@H](C)O)NC(=O)[C@H](CC(N)=O)NC(=O)[C@@H](NC(C)=O)C(C)(C)SSC(C)(C)[C@@H](C(=O)N[C@@H](Cc2ccc(OCCN)cc2)C(=O)N[C@@H](Cc2ccc3ccccc3c2)C(=O)N[C@@](C)(CCCCN)C(=O)N[C@@H](CCCCNC(C)=O)C(=O)N[C@@H](CC(N)=O)C(=O)N[C@@H](CCCNC(N)=O)C(N)=O)NC1=O [compound 249] | 7 | < 1 | > 24 | > 24 | 5
CC(=O)NCCCC[C@@H]1NC(=O)[C@H](Cc2c[nH]c3c(C)cccc23)NC(=O)[C@H]([C@@H](C)O)NC(=O)[C@H](CC(N)=O)NC(=O)[C@@H](NC(C)=O)C(C)(C)SSC(C)(C)[C@@H](C(=O)N[C@@H](Cc2ccc(OCCN)cc2)C(=O)N[C@@H](Cc2ccc3ccccc3c2)C(=O)N[C@@](C)(CCCCN)C(=O)N[C@@H](CCCCNC(C)=O)C(=O)N[C@@H](CC(N)=O)C(=O)N[C@H](C(N)=O)C(C)C)NC1=O [compound 250] | 17 | 1 to 10 | > 24 | > 24 | 12
CC(=O)NCCCC[C@@H]1NC(=O)[C@H](Cc2c[nH]c3c(C)cccc23)NC(=O)[C@H]([C@@H](C)O)NC(=O)[C@H](CC(N)=O)NC(=O)[C@@H](NC(C)=O)C(C)(C)SSC(C)(C)[C@@H](C(=O)N[C@@H](Cc2ccc(OCCN)cc2)C(=O)N[C@@H](Cc2ccc3ccccc3c2)C(=O)N[C@@](C)(CCCCN)C(=O)N[C@@H](CCCCNC(C)=O)C(=O)N[C@@H](CC(N)=O)C(=O)N[C@@H](C(N)=O)C(C)C)NC1=O [compound 251] | 22 | < 1 | > 24 | > 24 | > 24
CC(=O)NCCCC[C@@H]1NC(=O)[C@H](Cc2c[nH]c3c(C)cccc23)NC(=O)[C@H]([C@@H](C)O)NC(=O)[C@H](CC(N)=O)NC(=O)[C@@H](NC(C)=O)C(C)(C)SSC(C)(C)[C@@H](C(=O)N[C@@H](Cc2ccc(OCCN)cc2)C(=O)N[C@@H](Cc2ccc3ccccc3c2)C(=O)N[C@@](C)(CCCCN)C(=O)N[C@@H](CCCCNC(C)=O)C(=O)N[C@@H](CC(N)=O)C(=O)N2CCC[C@H]2C(N)=O)NC1=O [compound 253] | 11 | 1 to 10 | > 24 | 1 | 3
CC(=O)NCCCC[C@@H]1NC(=O)[C@H](Cc2c[nH]c3c(C)cccc23)NC(=O)[C@H]([C@@H](C)O)NC(=O)[C@H](CC(N)=O)NC(=O)[C@@H](NC(C)=O)C(C)(C)SSC(C)(C)[C@@H](C(=O)N[C@@H](Cc2ccc(OCCN)cc2)C(=O)N[C@@H](Cc2ccc3ccccc3c2)C(=O)N[C@@](C)(CCCCN)C(=O)N[C@@H](CCCCNC(C)=O)C(=O)N[C@@H](CC(N)=O)C(=O)N2CCC[C@@H]2C(N)=O)NC1=O [compound 254] | 16 | 1 to 10 | 12 | > 24 | > 24
CC[C@H](C)[C@H](NC(=O)[C@H](CC(N)=O)NC(=O)[C@H](CCCCNC(C)=O)NC(=O)[C@](C)(CCCCN)NC(=O)[C@H](Cc1ccc2ccccc2c1)NC(=O)[C@H](Cc1ccc(OCCN)cc1)NC(=O)[C@H]1NC(=O)[C@H](CCCCNC(C)=O)NC(=O)[C@H](Cc2c[nH]c3c(C)cccc23)NC(=O)[C@H]([C@@H](C)O)NC(=O)[C@H](CC(N)=O)NC(=O)[C@@H](NC(C)=O)C(C)(C)SSC1(C)C)C(N)=O [compound 255] | 19 | 1 to 10 | > 24 | > 24 | 15
CC(=O)NCCCC[C@H](NC(=O)[C@](C)(CCCCN)NC(=O)[C@H](Cc1ccc2ccccc2c1)NC(=O)[C@H](Cc1ccc(OCCN)cc1)NC(=O)[C@H]1NC(=O)[C@H](CCCNC(N)=O)NC(=O)[C@H](Cc2c[nH]c3c(C)cccc23)NC(=O)[C@H]([C@@H](C)O)NC(=O)[C@H](CC(N)=O)NC(=O)[C@@H](NC(C)=O)C(C)(C)SSC1(C)C)C(=O)N[C@@H](CC(N)=O)C(=O)N[C@H](Cc1ccccc1)C(N)=O [compound 257] (Ac-[Pen]NT[Trp(7-Me)][Cit][Pen][AEF][2Nal][αMeK]K(Ac)N[dF]-NH2; disulfide 1-6) | 5 | 1 to 10 | > 24 | > 24 | 23
CC(=O)NCCCC[C@H](NC(=O)[C@](C)(CCCCN)NC(=O)[C@H](Cc1ccc2ccccc2c1)NC(=O)[C@H](Cc1ccc(OCCN)cc1)NC(=O)[C@H]1NC(=O)[C@H](CCCNC(N)=O)NC(=O)[C@H](Cc2c[nH]c3c(C)cccc23)NC(=O)[C@H]([C@@H](C)O)NC(=O)[C@H](CC(N)=O)NC(=O)[C@@H](NC(C)=O)C(C)(C)SSC1(C)C)C(=O)N[C@@H](CC(N)=O)C(=O)N[C@H](Cc1ccc(O)cc1)C(N)=O [compound 259] (Ac-[Pen]NT[Trp(7-Me)][Cit][Pen][AEF][2Nal][αMeK]K(Ac)N[dY]-NH2; disulfide 1-6) | 12 | < 1 | > 24 | > 24 | 16
CC(=O)NCCCC[C@H](NC(=O)[C@](C)(CCCCN)NC(=O)[C@H](Cc1ccc2ccccc2c1)NC(=O)[C@H](Cc1ccc(OCCN)cc1)NC(=O)[C@H]1NC(=O)[C@H](CCCNC(N)=O)NC(=O)[C@H](Cc2c[nH]c3c(C)cccc23)NC(=O)[C@H]([C@@H](C)O)NC(=O)[C@H](CC(N)=O)NC(=O)[C@@H](NC(C)=O)C(C)(C)SSC1(C)C)C(=O)N[C@@H](CC(N)=O)C(=O)N[C@H](CO)C(N)=O [compound 261] (Ac-[Pen]NT[Trp(7-Me)][Cit][Pen][AEF][2Nal][αMeK]K(Ac)N[dS]-NH2; disulfide 1-6) | 18 | < 1 | > 24 | > 24 | 4
CC(=O)NCCCC[C@H](NC(=O)[C@](C)(CCCCN)NC(=O)[C@H](Cc1ccc2ccccc2c1)NC(=O)[C@H](Cc1ccc(OCCN)cc1)NC(=O)[C@H]1NC(=O)[C@H](CCCNC(N)=O)NC(=O)[C@H](Cc2c[nH]c3c(C)cccc23)NC(=O)[C@H]([C@@H](C)O)NC(=O)[C@H](CC(N)=O)NC(=O)[C@@H](NC(C)=O)C(C)(C)SSC1(C)C)C(=O)N[C@@H](CC(N)=O)C(=O)N[C@@H](C(N)=O)[C@H](C)O [compound 263] (Ac-[Pen]NT[Trp(7-Me)][Cit][Pen][AEF][2Nal][αMeK]K(Ac)N[dT]-NH2; disulfide 1-6) | 14 | < 1 | > 24 | > 24 | 9
